Source: ChEMBL document CHEMBL1201862, “PubChem BioAssay data set” (2004)
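Cells were grown in 96-well plates and exposed to each compound for 48 hours at five concentrations; endpoints were interpolated linearly between bracketing concentrations, or set to the highest concentration if not reached. GI50 = concentration required for 50% inhibition of growth.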 The source made the active and inactive calls. Rule as the data show it: active = GI50 up to about 1.1 µM and inactive = higher.

How the values were obtained:
Assay in all cases: inhibition of tumour cell growth, NCI panel, 48 h
SR = tested on: SR
UO-31 = tested on: UO-31
M14 = tested on: M14
K562 = tested on: K562
NCI-H522 = tested on: NCI-H522
HCC 2998 = tested on: HCC 2998
HCT-116 = tested on: HCT-116
SF-295 = tested on: SF-295
SN12C = tested on: SN12C
SW-620 = tested on: SW-620
SF-539 = tested on: SF-539
A498 = tested on: A498
EKVX = tested on: EKVX
KM-20L2 = tested on: KM-20L2
HT-29 = tested on: HT-29
LOX IMVI = tested on: LOX IMVI
MCF7 = tested on: MCF7
Hs-578T = tested on: Hs-578T
DU-145 = tested on: DU-145
BT-549 = tested on: BT-549

Measured: GI50

Cc1nc2cc3nc4ccccc4c(O)c3cc2s1
inactive: SR > 100 µM | UO-31 > 100 µM | M14 > 100 µM | K562 > 100 µM | NCI-H522 > 100 µM | HCC 2998 > 100 µM | HCT-116 > 100 µM | SF-295 > 100 µM | SN12C > 100 µM | SW-620 > 100 µM | SF-539 > 100 µM | A498 > 100 µM | EKVX > 100 µM | KM-20L2 > 100 µM | HT-29 > 100 µM

CCOC(=O)C1(c2ccccc2)CCCNCC1 (stereo unspecified)
inactive: SR 33.1 µM | UO-31 > 100 µM | M14 > 100 µM | K562 > 100 µM | NCI-H522 7.91 µM | HCC 2998 > 100 µM | HCT-116 58.9 µM | SF-295 > 100 µM | SN12C 39.4 µM | SW-620 > 100 µM | LOX IMVI > 100 µM | A498 45.8 µM | EKVX > 100 µM | KM-20L2 > 100 µM | HT-29 77.8 µM

CCOC(=O)C(=O)Nc1c(C(C)C)cccc1C(C)C
inactive: SR > 100 µM | UO-31 > 100 µM | M14 > 100 µM | NCI-H522 > 100 µM | HCC 2998 > 100 µM | HCT-116 > 100 µM | SF-295 > 100 µM | SN12C > 100 µM | SW-620 > 100 µM | SF-539 > 100 µM | A498 > 100 µM | EKVX > 100 µM | KM-20L2 > 100 µM | HT-29 > 100 µM

CCC1C(=O)OCc2c1cc1n(c2=O)CCC12OCCO2 (stereo unspecified)
inactive: SR > 100 µM | UO-31 > 100 µM | M14 > 100 µM | K562 > 100 µM | NCI-H522 > 100 µM | HCC 2998 63.8 µM | HCT-116 > 100 µM | SF-295 > 100 µM | SN12C > 100 µM | SW-620 > 100 µM | SF-539 > 100 µM | LOX IMVI > 100 µM | A498 > 100 µM | EKVX > 100 µM | KM-20L2 > 100 µM | HT-29 > 100 µM

N#CC(C(=O)C(=O)NCCCNC(=O)C(=O)C(C#N)c1ccccc1)c1ccccc1 (stereo unspecified)
inactive: SR > 100 µM | UO-31 > 100 µM | M14 > 100 µM | K562 > 100 µM | NCI-H522 > 100 µM | HCC 2998 > 100 µM | HCT-116 > 100 µM | SF-295 > 100 µM | SN12C > 100 µM | SW-620 > 100 µM | SF-539 > 100 µM | LOX IMVI > 100 µM | A498 > 100 µM | EKVX > 100 µM | KM-20L2 > 100 µM | HT-29 > 100 µM

O=[N+]([O-])c1cc(I)cc(/C=N/NS(=O)(=O)c2ccc(F)cc2)c1O
inactive: SR 22.3 µM | UO-31 26.2 µM | M14 27.5 µM | K562 21.6 µM | NCI-H522 20.7 µM | HCC 2998 33 µM | HCT-116 22.9 µM | SF-295 33.2 µM | SN12C 22.9 µM | SW-620 32.4 µM | SF-539 27.1 µM | LOX IMVI 27 µM | A498 36.1 µM | EKVX 30.7 µM | KM-20L2 29.8 µM | HT-29 18.7 µM

Cc1ccc(S(=O)(=O)C2c3nc4ccccc4cc3-c3nc4ccccc4nc32)cc1 (stereo unspecified)
inactive: SR > 100 µM | UO-31 > 100 µM | M14 > 100 µM | K562 > 100 µM | NCI-H522 > 100 µM | HCC 2998 > 100 µM | HCT-116 > 100 µM | SN12C > 100 µM | SW-620 > 100 µM | SF-539 > 100 µM | LOX IMVI > 100 µM | A498 > 100 µM | EKVX > 100 µM | KM-20L2 > 100 µM

O=[N+]([O-])c1ccc(NSc2ccccc2)cc1
inactive: SR 10.7 µM | UO-31 26.8 µM | M14 20.5 µM | K562 23.6 µM | NCI-H522 17.2 µM | HCC 2998 50.6 µM | HCT-116 25.2 µM | SF-295 27.6 µM | SN12C 17.2 µM | SW-620 24.2 µM | SF-539 18.7 µM | LOX IMVI 13.1 µM | A498 2.37 µM | EKVX 30 µM | KM-20L2 31.8 µM

O=C(O)c1c[nH]c2c(ccc3ncccc32)c1=O
inactive: SR > 100 µM | UO-31 > 100 µM | M14 > 100 µM | K562 > 100 µM | NCI-H522 > 100 µM | HCC 2998 > 100 µM | HCT-116 > 100 µM | SN12C > 100 µM | SW-620 > 100 µM | SF-539 > 100 µM | LOX IMVI > 100 µM | A498 > 100 µM | EKVX > 100 µM | KM-20L2 > 100 µM | HT-29 > 100 µM

CC(=O)OCC1OC(OC2C(CSC3OC(COC(C)=O)C(OC(C)=O)C(OC(C)=O)C3OC(C)=O)OC(OC(C)=O)C(OC(C)=O)C2OC(C)=O)C(OC(C)=O)C(OC(C)=O)C1OC(C)=O (stereo unspecified)
inactive: SR > 100 µM | UO-31 > 100 µM | M14 > 100 µM | K562 > 100 µM | NCI-H522 > 100 µM | HCC 2998 > 100 µM | HCT-116 > 100 µM | SF-295 > 100 µM | SN12C > 100 µM | SW-620 > 100 µM | SF-539 > 100 µM | LOX IMVI > 100 µM | EKVX > 100 µM | KM-20L2 > 100 µM | HT-29 > 100 µM

CN(C)CC1CCCC/C1=N/O (stereo unspecified)
inactive: UO-31 > 100 µM | M14 > 100 µM | K562 > 100 µM | NCI-H522 > 100 µM | HCC 2998 > 100 µM | HCT-116 > 100 µM | SF-295 > 100 µM | SN12C > 100 µM | SW-620 > 100 µM | SF-539 > 100 µM | LOX IMVI > 100 µM | A498 > 100 µM | EKVX > 100 µM | KM-20L2 > 100 µM | HT-29 > 100 µM

COc1ccc(Nc2nnc(-c3nsc4ccccc34)s2)cc1
inactive: SR 39.9 µM | UO-31 10.2 µM | M14 > 100 µM | K562 47.2 µM | HCC 2998 > 56.4 µM | HCT-116 8.55 µM | SF-295 10.8 µM | SN12C > 61.4 µM | MCF7 81.3 µM | SW-620 > 72.9 µM | SF-539 31.8 µM | LOX IMVI 41.1 µM | Hs-578T 21.9 µM | A498 3.78 µM | DU-145 > 100 µM | EKVX 58.6 µM | KM-20L2 > 100 µM | HT-29 39 µM

O=C(NS(=O)(=O)c1ccccc1)C(Cc1ccccc1)C(Cc1ccccc1)C(=O)NS(=O)(=O)c1ccccc1 (stereo unspecified)
inactive: SR > 100 µM | UO-31 > 100 µM | M14 > 100 µM | K562 > 100 µM | NCI-H522 > 100 µM | HCC 2998 > 100 µM | HCT-116 > 100 µM | SF-295 > 100 µM | SN12C > 100 µM | SW-620 > 100 µM | SF-539 > 100 µM | LOX IMVI > 100 µM | A498 > 100 µM | EKVX > 100 µM | KM-20L2 > 100 µM | HT-29 > 100 µM

CN1CCn2c(Br)ccc2C1=O
inactive: SR > 100 µM | UO-31 > 100 µM | M14 > 100 µM | K562 > 100 µM | NCI-H522 > 100 µM | HCC 2998 > 100 µM | HCT-116 > 100 µM | SF-295 > 100 µM | SN12C > 100 µM | SW-620 > 100 µM | SF-539 > 100 µM | LOX IMVI > 100 µM | A498 > 100 µM | EKVX > 100 µM | KM-20L2 > 100 µM | HT-29 > 100 µM

COc1c(Cl)cc(NC(=S)C#N)cc1Cl
inactive: SR 23.8 µM | BT-549 16.6 µM | UO-31 22.3 µM | M14 24.5 µM | K562 > 52.2 µM | NCI-H522 19.4 µM | HCC 2998 15.9 µM | HCT-116 16.4 µM | SF-295 29.5 µM | SN12C 20.1 µM | MCF7 24.4 µM | SW-620 31.3 µM | SF-539 23.8 µM | LOX IMVI 20 µM | A498 19.1 µM | DU-145 35.6 µM | EKVX 22.2 µM | KM-20L2 20.1 µM | HT-29 22.8 µM

COC1C2C=CC(C2)[C@H]1[N+](=O)[O-] (stereo partly specified)
inactive: SR > 100 µM | UO-31 > 100 µM | M14 > 100 µM | K562 > 100 µM | NCI-H522 > 100 µM | HCC 2998 > 100 µM | HCT-116 > 100 µM | SF-295 > 100 µM | SN12C > 100 µM | SW-620 95.7 µM | SF-539 > 100 µM | LOX IMVI > 100 µM | A498 > 100 µM | EKVX > 100 µM | KM-20L2 > 100 µM | HT-29 > 100 µM

CC(C)(C)CC(C)(C)c1ccc(OCCOCC[N+](C)(C)Cc2ccccc2)cc1 [BENZETHONIUM CHLORIDE]
inactive: SR 2.03 µM | UO-31 21.6 µM | M14 2.08 µM | K562 2.19 µM | NCI-H522 1.66 µM | HCC 2998 1.5 µM | HCT-116 1.71 µM | SF-295 11 µM | SN12C 3.52 µM | SW-620 2.69 µM | LOX IMVI 1.42 µM | A498 16.6 µM | EKVX 4.2 µM | KM-20L2 3.89 µM | HT-29 1.6 µM
